Assay results taken from patent publication US11464770B2, “Anticancer pharmaceutical composition” (NATIONAL CANCER CENTER, priority 2016, dated 2022).
pIC50: −log10 of the molar value. Where two headings read alike, the source gives them in different places.

Tests used:
[1] = system: prostate cancer cell lines (e.g. DU145/TXR); assay: Cell based assay, cell viability (CellTiter-Glo), prostate cancer cell lines; conditions: Homo sapiens, 72 hours treatment, final concentration 0 to 2 μM
Procedure, shortened: (§1)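 72-hour continuous compound exposure, 0 to 2 μM final, begun one day after seeding; endpoint is ATP-based luminescent viability.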

[2] = system: lung cancer cell lines (e.g. NCI-H23, NCI-H1229); assay: Cell based assay, cell viability (CellTiter-Glo), lung cancer cell lines; conditions: Homo sapiens, 72 hours treatment, CellTiter-Glo
Procedure, shortened: as §1

brain cancer cell lines = assay: Cell based assay, cell viability (CellTiter-Glo), brain cancer cell lines; conditions: Homo sapiens
neuroblastoma cell lines = assay: Cell based assay, cell viability (CellTiter-Glo), neuroblastoma cell lines; conditions: Homo sapiens; SH-SY5Y cell line
Procedure, shortened: as §1

liver cancer cell lines = assay: Cell based assay, cell viability (CellTiter-Glo), liver cancer cell lines; conditions: Homo sapiens, SK-HEP1; SK-HEP-1 cell line
Procedure, shortened: as §1

renal cancer cell lines = assay: Cell based assay, cell viability (CellTiter-Glo), renal cancer cell lines; conditions: Homo sapiens; ACHN cells
Procedure, shortened: as §1

[3] = CWR22 cells, read-out: IC50, prostate cancer cell line CWR22
[4] = DU-145, DU145 cells, read-out: IC50, prostate cancer cell line DU145
[5] = LNcap cells, read-out: IC50, prostate cancer cell line LNcap
[6] = PC-3 cells, read-out: IC50, prostate cancer cell line PC-3
[7] = A549 cells, read-out: IC50, lung cancer cell line A549
[8] = DMS 114 cells, read-out: IC50, lung cancer cell line DMS 114
[9] = NCI-H23 cells, read-out: IC50, lung cancer cell line NCI-H23
[10] = NCI-H460 cells, read-out: IC50, lung cancer cell line NCI-H460
[11] = NCI-H522 cells, read-out: IC50, lung cancer cell line NCI-H522
[12] = NCI-H1299 cells, read-out: IC50, lung cancer cell line NCI-H1299
[13] = NCI-H1437 cells, read-out: IC50, lung cancer cell line NCI-H1437
[14] = U138-MG, U-138 MG cell line, read-out: IC50, Brain cancer cell line U-138 MG
[15] = T98G cell line, read-out: IC50, Brain cancer cell line T98G
[16] = U-251 MG cell line, read-out: IC50, Brain cancer cell line U-251 MG
[17] = DU-145, DU145/TXR cells, read-out: IC50, prostate cancer cell line DU145/TXR

SMILES | pIC50 [1, 3] | pIC50 [1, 4] | pIC50 [1, 5] | pIC50 [1, 6] | pIC50 [2, 7] | pIC50 [2, 8] | pIC50 [2, 9] | pIC50 [2, 10] | pIC50 [2, 11] | pIC50 [2, 12] | pIC50 [2, 13] | pIC50 (brain cancer cell lines; [14]) | pIC50 (brain cancer cell lines; [15]) | pIC50 (brain cancer cell lines; [16]) | pIC50 (neuroblastoma cell lines) | pIC50 (liver cancer cell lines) | pIC50 (renal cancer cell lines) | pIC50 [1, 17] | pIC50 ([2]; MRC-5 cells, read-out: IC50)
CC(=O)c1c([S+]([O-])Cc2ccc(F)cc2F)[nH]c2c(Br)ccc(Cl)c2c1=O (stereo not shown) [Compound 29, 3-acetyl-8-bromo-5-chloro-2-((2,4-difluorobenzyl)sulfinyl)quinolin-4(1H)-one] | 5.75 | 5.76 | 5.81 | 5.84 | < 5.70 | < 5.70 | 6.04 | 5.75 | < 5.70 | 5.85 | < 5.00 | 5.86 | < 5.00 | 5.94 | < 5.70 | 5.99 | < 5.70 |  | < 5.70
CC(=O)c1c([S+]([O-])Cc2ccc(F)c(Cl)c2)[nH]c2c(Br)ccc(Cl)c2c1=O (stereo not shown) [Compound 31, 3-acetyl-8-bromo-5-chloro-2-((3-chloro-4-fluorobenzyl)sulfinyl)quinolin-4(1H)-one] | 5.80 | 5.84 | 5.79 | 5.85 | 5.76 | < 5.70 | 6.09 | 5.85 | < 5.70 | 5.91 | < 5.00 | 5.75 | < 5.00 | 5.96 | < 5.70 |  | < 5.70 | 6.03 | < 5.70
CC(=O)c1c([S+]([O-])Cc2ccc([N+](=O)[O-])cc2)[nH]c2c(Br)ccc(Cl)c2c1=O (stereo not shown) [Compound 33, 3-acetyl-8-bromo-5-chloro-2-((4-nitrobenzyl)sulfinyl)quinolin-4(1H)-one] | 5.87 | 5.79 | 5.74 | 5.80 | < 5.70 | < 5.70 | 6.07 | 5.75 | < 5.70 | 5.86 | < 5.00 | < 5.70 | < 5.00 | 5.95 | < 5.70 | 5.97 | < 5.70 | 5.87 | 6.09
CC(=O)c1c(S(=O)(=O)Cc2ccccc2)[nH]c2c(Br)ccc(Cl)c2c1=O [Compound 34, 3-acetyl-2-(benzylsulfonyl)-8-bromo-5-chloroquinolin-4(1H)-one] | < 5.70 | < 5.70 |  |  | < 5.70 | < 5.70 | 5.86 | < 5.70 | < 5.70 | 5.70 | < 5.00 | < 5.70 | < 5.00 | < 5.70 | < 5.70 | 5.76 | < 5.70 | 5.80 | < 5.70
CC(=O)c1c([S+]([O-])Cc2cc(Cl)ccc2Cl)[nH]c2c(Br)ccc(Cl)c2c1=O (stereo not shown) [Compound 44, 3-acetyl-8-bromo-5-chloro-2-((2,5-dichlorobenzyl)sulfinyl)quinolin-4(1H)-one] | 5.80 | 5.80 | 5.70 | 5.83 | 5.73 | < 5.70 | 6.02 | 5.76 | < 5.70 | 5.89 | < 5.00 | < 5.70 | < 5.00 | 5.98 | < 5.70 | 6.03 | < 5.70 | 6.00 | 6.02
CC(=O)c1c([S+]([O-])Cc2cc(F)cc(F)c2)[nH]c2c(Br)ccc(Cl)c2c1=O (stereo not shown) [Compound 46, 3-acetyl-8-bromo-5-chloro-2-((3,5-difluorobenzyl)sulfinyl)quinolin-4(1H)-one] | < 5.70 | < 5.70 | < 5.70 | < 5.70 | < 5.70 | < 5.70 | 5.90 | < 5.70 | < 5.70 | 5.73 | < 5.00 | < 5.70 | < 5.00 | < 5.70 | < 5.70 | 5.88 | < 5.70 | 5.81 | < 5.70

More lines, main results first:

pIC50 [1, 3] | pIC50 [1, 4] | pIC50 [1, 5] | pIC50 [1, 6] | pIC50 [2, 7] | pIC50 [2, 8] | pIC50 [2, 9] | pIC50 [2, 10] | pIC50 [2, 11] | pIC50 [2, 12] | pIC50 [2, 13] | pIC50 (brain cancer cell lines; [14]) | pIC50 (brain cancer cell lines; [15]) | pIC50 (brain cancer cell lines; [16]) | pIC50 (neuroblastoma cell lines) | pIC50 (liver cancer cell lines) | pIC50 (renal cancer cell lines) | pIC50 [1, 17] | SMILES | pIC50 ([2]; MRC-5 cells, read-out: IC50)
< 5.70 | 5.75 | < 5.70 | 5.80 | < 5.70 | < 5.70 | 5.94 | < 5.70 | < 5.70 | 5.71 | < 5.00 | < 5.70 | < 5.00 | 5.89 | < 5.70 | 5.87 | < 5.70 | 5.89 | CC(=O)c1c([S+]([O-])Cc2cccc(F)c2)[nH]c2c(Br)ccc(Cl)c2c1=O (stereo not shown) [Compound 50, 3-acetyl-8-bromo-5-chloro-2-((3-fluorobenzyl)sulfinyl)quinolin-4(1H)-one] | < 5.70
5.99 | 5.91 | 5.91 | 5.87 | < 5.70 | < 5.70 | 6.11 | 5.79 | 5.76 |  | < 5.00 | 5.72 | < 5.00 | < 5.70 | < 5.70 | 5.88 | < 5.70 | 5.95 | CC(=O)c1c([S+]([O-])Cc2cc(C)on2)[nH]c2c(Br)ccc(Cl)c2c1=O (stereo not shown) [Compound 51, 3-acetyl-8-bromo-5-chloro-2-(((5-methylisoxazol-3-yl)methyl)sulfinyl)quinolin-4(1H)-one] | 6.24
< 5.70 | < 5.70 | < 5.70 | 5.71 | < 5.70 | < 5.70 | 5.89 | < 5.70 | < 5.70 | < 5.70 | < 5.00 | < 5.70 | < 5.00 | < 5.70 | < 5.70 | 5.84 | < 5.70 | 5.86 | COc1cccc(C[S+]([O-])c2[nH]c3c(Br)ccc(Cl)c3c(=O)c2C(C)=O)c1 (stereo not shown) [Compound 55, 3-acetyl-8-bromo-5-chloro-2-((3-methoxybenzyl)sulfinyl)quinolin-4(1H)-one] | < 5.70
< 5.70 | 5.94 | < 5.70 | 5.82 | < 5.70 | < 5.70 | 5.87 | < 5.70 | < 5.70 | 5.74 | < 5.00 | < 5.70 | < 5.00 | < 5.70 | < 5.70 |  | < 5.70 | 5.86 | CC(=O)c1c([S+]([O-])Cc2c(F)c(F)c(F)c(F)c2F)[nH]c2c(Br)ccc(Cl)c2c1=O (stereo not shown) [Compound 78, 3-acetyl-8-bromo-5-chloro-2-(((perfluorophenyl)methyl)sulfinyl)quinolin-4(1H)-one] | 5.82
